{"source": "patent US20240287081A1", "about": "“PERFLUOROALKANE SUBSTITUTED PYRAZOLO[3,4-D]PYRIMIDIN AND PYRROLO[2,3-D]PYRIMIDIN COMPOUNDS AND USES THEREOF” (ICAHN SCHOOL OF MEDICINE AT MOUNT SINAI, priority 2021, published 2024)", "key": {"[1]": {"tested_on": "RET (WT and M918T)", "test": "NanoBRET cell based target engagement assay", "settings": "RET-Nluc in HEK 293T cells; for cellular IC50 against RET, ranking in words: pyrazolo- and pyrrolopyrimidine series", "quoted_text": "Assays were completed in duplicate. […] FIG. 8D is a graph of the cell-based target engagement for the indicated compounds against wild-type and M918T RET. IC50 values were determined based on 8-point titration curves of free ligand. Competition assays were completed in technical triplicate against full-length human RET-Nluc expressed in 293T cells, complexed with an active-site fluorescent tracer.\nIn this assay, a bioluminescence resonance energy transfer (BRET) signal is generated between nanoLuciferase tagged RET (expressed in HEK 293T cells) and an active-site based fluorescent tracer. […] Using this assay, in vivo binding was determined for a series of compounds against mutant (M918T) and wild-type RET (FIG. 8D)."}, "[2]": {"tested_on": "ptc>dRet^M955T flies", "test": "Fly rescue assay (Drosophila MTC model ptc>dRet^M955T)", "format": "in vivo", "settings": "compound in fly food; for rescue (percent viability of adult flies, adults/pupae×100): 13 d at 25° C.", "method": "Kinase-mutated fly stocks were obtained from Bloomington Drosophila Stock Center (BDSC; Bloomington, IN). The active mutant form of Drosophila Ret (dRet^955T) carries an M955T mutation corresponding to the M918T mutation commonly reported for multiple endocrine neoplasia (MEN) type 2B patients12,14,16,34. The ptc-gal4, UAS-GFP;UAS-dRet^M955T/SM5tub-gal80-TM6B transgenic flies were prepared according to standard protocols and crossed with non-transgenic w-flies (BDSC) to generate ptc-gal4, UAS-GFP; UAS-dRet^M955T(ptc>dRet^M955T) flies for chemical screening.\nAll drugs were synthesized in-house. All compounds were dissolved in DMSO (Sigma-Aldrich; St. Louis, MO) and mixed with semi-defined fly medium (BDSC) to make drug food (0.1% final DMSO concentration). For drug screening, ptc>dRet^M955T embryos were raised until adulthood on drug food for 13 d at 25° C. The number of empty pupal cases (i.e., adults) ? that of total pupal cases (P) to determine % viability. Fly randomization was used throughout the assays.\nIn this model, compounds are assessed based on their ability to suppress oncogenic Ret^M955T-induced tumors, which can be quantified as ‘rescue’ from lethality. […] The baseline viability of ptc>Ret^1955T flies was calibrated to zero, which creates a high bar for rescue but also reduces false-positive hits. Hundreds of flies are tested per condition (typical n values are […] administered through fly food."}, "[3]": {"tested_on": "HCC tumor organoids, BC (B-Catenin)", "test": "3D HCC tumor organoid viability, BC model", "format": "cell-based", "settings": "5.0 μM, viability three days post drug administration", "method": "(§1) For assays in HCC tumor organoids, 96 well plates were first coated with a 50:50 solution of basal media:Matrigel ([…]), which polymerized for 15 minutes at 37° C. Tumor organoids were taken out of Matrigel, broken, and washed. Tumor organoids were seeded at 1,000 cells per well and were treated the following day with single doses of drugs in technical triplicate. Final DMSO concentrations were kept below 0.5%. Cell viability was measured three days post drug administration with either luminescence from CellTiter-Glo or absorbance at 560 and 590 nm from resazurin. Viability data was analyzed by normalizing individual drug-treated well values to DMSO-treated wells (BC=B-Catenin; SR=sorafenib resistant). Results of 3D HCC cell line data for pyrazolo- and pyrrolopyrimidine compounds at 0.5 μm (FIGS. 22A-F), 0.05 μm (FIGS. 23A-F), and 5.0 μm (FIGS. 24A-F) were obtained. […] In the BC model, at 5.0 μM, the top ten compounds were: APS-8-100-4, APS-8-52-3, APS-8-51-4, APS-7-25-2, APS-8-100-3, APS-8-51-3, APS-8-50-4, APS-8-52-4, and APS-7-38. In the SR model, at 5.0 μM, the top ten compounds were: APS-8-51-3, APS-8-50-4, APS-8-51-4, APS-8-52-3, APS-8-50-3, APS-7-52-2, APS-8-52-4, APS-7-52-1, and APS-8-100-4."}, "[4]": {"tested_on": "HCC tumor organoids, SR (sorafenib resistant)", "test": "3D HCC tumor organoid viability, SR model", "format": "cell-based", "settings": "5.0 μM, viability three days post drug administration", "method": "as §1"}, "[5]": {"tested_on": "panel of 468 purified human kinases", "test": "In vitro kinase percent inhibition, panel of 468 kinases (DiscoverX)", "format": "binding", "settings": "1 μM; for binding to wild-type RET and RET^M918T, in words: kinase panel; for binding profile / selectivity across the kinome, in words: panel of 468 kinases", "method": "Compounds were assayed against a panel of 468 purified human kinases (DiscoverX) to measure percentage inhibition values and derive kinome profiles (FIGS. 3B-3C). All compounds were screened at 1 μM, using two experimental replicates to determine percent inhibition values. Detailed procedures for kinase reactions and assay formats are described at http://www.discoverx.com. Raw data sets for individual compounds were filtered based on the variance of experimental replicates (cutoff=average variance+standard deviation)."}}, "note": "Entries after “also recorded” stand apart in the source; their conditions may differ.", "data": [{"smiles": "CC(C)n1nc(-c2ccc(NC(=O)Nc3cc(C(F)(F)C(F)(F)F)ccc3F)cc2)c2c(N)ncnc21", "note": "[APS-5-86-2, 1-(4-(4-Amino-1-isopropyl-1H-pyrazolo[3,4-d]pyrimidin-3-yl)phenyl)-3-(2-fluoro-5-(perfluoroethyl)phenyl)urea]", "values": [{"measurement": "cellular IC50 wild-type RET versus M918T mutant, in words", "setting": "[1]", "result": "not observed"}, {"measurement": "rescue (percent viability of adult flies, adults/pupae×100)", "setting": "[2]; baseline viability 0%", "result": 92, "unit": "%"}]}, {"smiles": "CC(C)n1cc(-c2ccc(NC(=O)Nc3cc(C(F)(C(F)(F)F)C(F)(F)F)ccc3F)cc2)c2c(N)ncnc21", "note": "[APS-7-25-2, 1-(4-(4-Amino-7-isopropyl-7H-pyrrolo[2,3-d]pyrimidin-5-yl)phenyl)-3-(2-fluoro-5-(perfluoropropan-2-yl)phenyl)urea]", "values": [{"measurement": "ranking by inhibition of cell proliferation, BC model", "setting": "[3]", "result": "top ten"}]}, {"smiles": "CC(C)n1cc(-c2ccc(NC(=O)Nc3cc(C(F)(F)C(F)(F)F)ccc3F)cc2)c2c(N)ncnc21", "note": "[APS-7-38, 1-(4-(4-Amino-7-isopropyl-7H-pyrrolo[2,3-d]pyrimidin-5-yl)phenyl)-3-(2-fluoro-5-(perfluoroethyl)phenyl)urea]", "values": [{"measurement": "ranking by inhibition of cell proliferation, BC model", "setting": "[3]", "result": "top ten"}]}, {"smiles": "CC(C)n1nc(-c2ccc(NC(=O)Nc3cccc(C(F)(F)C(F)(F)C(F)(F)C(F)(F)F)c3)cc2)c2c(N)ncnc21", "note": "[APS-7-46-2, 1-(4-(4-Amino-1-isopropyl-1H-pyrazolo[3,4-d]pyrimidin-3-yl)phenyl)-3-(3-(perfluorobutyl)phenyl)urea]", "values": [{"measurement": "rescue (percent viability of adult flies, adults/pupae×100)", "setting": "[2]; baseline viability 0%", "result": "over 80%"}]}, {"smiles": "CC(C)n1nc(-c2ccc(NC(=O)Nc3cccc(C(F)(F)C(F)(F)C(F)(F)F)c3)cc2)c2c(N)ncnc21.O=C(O)C(F)(F)F", "note": "[APS-7-52-1, 1-(4-(4-Amino-1-isopropyl-1H-pyrazolo[3,4-d]pyrimidin-3-yl)phenyl)-3-(3-(perfluoropropyl)phenyl)urea 2,2,2-trifluoroacetate]", "values": [{"measurement": "ranking by inhibition of cell proliferation, SR model", "setting": "[4]", "result": "top ten"}]}, {"smiles": "CC(C)n1cc(-c2ccc(NC(=O)Nc3cccc(C(F)(F)C(F)(F)C(F)(F)F)c3)cc2)c2c(N)ncnc21.O=C(O)C(F)(F)F", "note": "[APS-7-52-2, 1-(4-(4-Amino-7-isopropyl-7H-pyrrolo[2,3-d]pyrimidin-5-yl)phenyl)-3-(3-(perfluoropropyl)phenyl)urea 2,2,2-trifluoroacetate]", "values": [{"measurement": "ranking by inhibition of cell proliferation, SR model", "setting": "[4]", "result": "top ten"}]}, {"smiles": "CC(C)n1nc(-c2ccc(NC(=O)Nc3ccc(C(F)(C(F)(F)F)C(F)(F)C(F)(F)F)cc3)cc2)c2c(N)ncnc21", "note": "(stereo not shown) [APS-8-6-2, 1-(4-(4-Amino-1-isopropyl-1H-pyrazolo[3,4-d]pyrimidin-3-yl)phenyl)-3-(4-(perfluorobutan-2-yl)phenyl)urea]", "values": [{"measurement": "binding to wild-type RET and RET^M918T, in words", "setting": "[5]", "result": "more potent than 43 on wild-type and mutant RET"}, {"measurement": "binding to wild-type RET and RET^M918T, in words", "setting": "[5]; listed as 8-6-2", "result": "highly potent on both wild-type and RET^M918T"}, {"measurement": "binding profile / selectivity across the kinome, in words", "setting": "[5]", "result": "generally promiscuous KI"}, {"measurement": "binding profile / selectivity across the kinome, in words", "setting": "[5]; listed as 8-6-2", "result": "overall selectivity profile in between 4-9-8 and 8-82-1"}, {"measurement": "cellular IC50 against RET, ranking in words", "setting": "[1]", "result": "highest IC50 values"}, {"measurement": "rescue activity in the fly model, in words", "setting": "[2]", "result": "one of the highest rescues in the MTC fly assay; also recorded: exceptional in vivo activity"}, {"measurement": "rescue (percent viability of adult flies, adults/pupae×100)", "setting": "[2]; baseline viability 0%, listed as 65", "result": 99, "unit": "%"}]}, {"smiles": "CC(C)n1nc(-c2ccc(NC(=O)Nc3ccc(C(F)(C(F)(F)F)C(F)(F)F)cc3)cc2)c2c(N)ncnc21", "note": "[APS-8-50-3, 1-(4-(4-Amino-1-isopropyl-1H-pyrazolo[3,4-d]pyrimidin-3-yl)phenyl)-3-(4-(perfluoropropan-2-yl)phenyl)urea]", "values": [{"measurement": "ranking by inhibition of cell proliferation, SR model", "setting": "[4]", "result": "top ten"}]}, {"smiles": "CC(C)n1cc(-c2ccc(NC(=O)Nc3ccc(C(F)(C(F)(F)F)C(F)(F)F)cc3)cc2)c2c(N)ncnc21", "note": "[APS-8-50-4, 1-(4-(4-Amino-7-isopropyl-7H-pyrrolo[2,3-d]pyrimidin-5-yl)phenyl)-3-(4-(perfluoropropan-2-yl)phenyl)urea]", "values": [{"measurement": "ranking by inhibition of cell proliferation, BC model", "setting": "[3]", "result": "top ten"}, {"measurement": "ranking by inhibition of cell proliferation, SR model", "setting": "[4]", "result": "top ten"}]}, {"smiles": "CC(C)n1nc(-c2ccc(NC(=O)Nc3ccc(C(F)(F)C(F)(F)C(F)(F)C(F)(F)F)cc3)cc2)c2c(N)ncnc21", "note": "[APS-8-52-3, 1-(4-(4-Amino-1-isopropyl-1H-pyrazolo[3,4-d]pyrimidin-3-yl)phenyl)-3-(4-(perfluorobutyl)phenyl)urea]", "values": [{"measurement": "ranking by inhibition of cell proliferation, BC model", "setting": "[3]", "result": "top ten"}, {"measurement": "ranking by inhibition of cell proliferation, SR model", "setting": "[4]", "result": "top ten"}]}, {"smiles": "CC(C)n1nc(-c2ccc(NC(=O)Nc3cccc(C(F)(C(F)(F)F)C(F)(F)C(F)(F)F)c3)cc2)c2c(N)ncnc21", "note": "(stereo not shown) [APS-8-56-3, 1-(4-(4-Amino-1-isopropyl-1H-pyrazolo[3,4-d]pyrimidin-3-yl)phenyl)-3-(3-(perfluorobutan-2-yl)phenyl)urea 2,2,2-trifluoroacetate]", "values": [{"measurement": "cellular IC50 against RET, ranking in words", "setting": "[1]", "result": "highest IC50 values"}]}, {"smiles": "CC(C)n1cc(-c2ccc(NC(=O)Nc3ccc(C(F)(C(F)(F)F)C(F)(F)C(F)(F)F)cc3)cc2)c2c(N)ncnc21", "note": "(stereo not shown) [APS-8-82-2, 1-(4-(4-Amino-7-isopropyl-7H-pyrrolo[2,3-d]pyrimidin-5-yl)phenyl)-3-(4-(perfluorobutan-2-yl)phenyl)urea 2,2,2-trifluoroacetate]", "values": [{"measurement": "cellular IC50 against RET, ranking in words", "setting": "[1]", "result": "highest IC50 values"}, {"measurement": "rescue activity in the fly model, in words", "setting": "[2]", "result": "exceptional in vivo activity"}, {"measurement": "rescue (percent viability of adult flies, adults/pupae×100)", "setting": "[2]; baseline viability 0%, 2,2,2-trifluoroacetate", "result": 100, "unit": "%"}]}, {"smiles": "CC(C)n1nc(-c2ccc(NC(=O)Nc3ccc(C(F)(F)C(F)(F)F)cc3)cc2)c2c(N)ncnc21", "note": "[APS-8-100-3, 1-(4-(4-Amino-1-isopropyl-1H-pyrazolo[3,4-d]pyrimidin-3-yl)phenyl)-3-(4-(perfluoroethyl)phenyl)urea]", "values": [{"measurement": "cellular IC50 against RET, ranking in words", "setting": "[1]", "result": "lowest IC50 values among the para-substituted compounds tested"}, {"measurement": "rescue activity in the fly model, in words", "setting": "[2]", "result": "exceptional in vivo activity"}, {"measurement": "rescue (percent viability of adult flies, adults/pupae×100)", "setting": "[2]; baseline viability 0%", "result": 100, "unit": "%"}, {"measurement": "ranking by inhibition of cell proliferation, BC model", "setting": "[3]", "result": "top ten"}]}, {"smiles": "CO[C@]1(C(=O)N[C@@H](C)c2ccc(-n3cc(F)cn3)nc2)CC[C@H](c2nc(C)cc(Nc3cc(C)[nH]n3)n2)CC1", "note": "[Blu667, reference compound]", "values": [{"measurement": "cellular IC50 wild-type RET versus M918T mutant, in words", "setting": "[1]", "result": "slightly lower IC50 values towards wild-type RET over the M918T mutant"}]}, {"smiles": "COc1ccc(CN2C3CC2CN(c2ccc(-c4cc(OCC(C)(C)O)cn5ncc(C#N)c45)cn2)C3)cn1", "note": "[Loxo292, reference compound]", "values": [{"measurement": "cellular IC50 wild-type RET versus M918T mutant, in words", "setting": "[1]", "result": "slightly lower IC50 values towards wild-type RET over the M918T mutant"}]}, {"smiles": "CNC(=O)c1cc(Oc2ccc(NC(=O)Nc3ccc(C(C)(F)C(C)(C)C)cc3)cc2)ccn1", "note": "(stereo not shown) [compound 44]", "values": [{"measurement": "rescue (percent viability of adult flies, adults/pupae×100)", "setting": "[2]; baseline viability 0%", "result": 55, "unit": "%"}]}, {"smiles": "CNC(=O)c1cc(Oc2ccc(NC(=O)Nc3ccc(Cl)c(C(F)(F)F)c3)c(F)c2)ccn1", "note": "[regorafenib, reference compound]", "values": [{"measurement": "cellular IC50 wild-type RET versus M918T mutant, in words", "setting": "[1]", "result": "slightly lower IC50 values towards wild-type RET over the M918T mutant"}]}]}
